Assay results from US10358425B1, “Dihydropyrimidones and pharmaceutical compositions thereof” (King Abdulaziz University, priority 2018, dated 2019).

For `O=C1NC(O)=C(C(=O)c2ccccc2)C(c2ccccc2)N1` (stereo not shown) [Compound 7, 5-benzoyl-6-hydroxy-4-phenyl-3,4-dihydropyrimidin-2(1H)-one], the melting point was 267 °C.
